Measured values from PubChem BioAssay (NCI).
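Briefly, cells in 96-well plates were exposed to five compound concentrations for 48 h, and endpoints were estimated by linear interpolation. TGI denotes the concentration required for complete inhibition of growth.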

Experiments:
Experiment in all cases: inhibition of tumour cell growth, NCI panel, 48 h
[1] = tested on: RPMI-8226 leukemia
[2] = tested on: UACC-62 melanoma
[3] = tested on: SK-MEL-28 melanoma
[4] = tested on: HOP-92 NSCLC
[5] = tested on: HL-60(TB) leukemia
[6] = tested on: MOLT-4 leukemia
[7] = tested on: NCI-H460 lung
[8] = tested on: HT29 colon
[9] = tested on: CAKI-1 renal
[10] = tested on: ACHN renal

Structure (SMILES) | TGI [1] | TGI [2] | TGI [3] | TGI [4] | TGI [5] | TGI [6] | TGI [7] | TGI [8] | TGI [9] | TGI [10]
C=C1C(=O)C[C@@]23CCC[C@@]12CC(O)C3 (some centres undefined) | 61.3 µM | 30.9 µM | 49.8 µM | 42.1 µM | 49.9 µM | > 80.7 µM | 54.1 µM | 33.2 µM | – | –
CCOc1cc(C=O)ccc1O | > 100 µM | – | > 100 µM | > 100 µM | > 100 µM | > 100 µM | > 100 µM | > 100 µM | > 100 µM | > 100 µM
Cc1cnc2[nH]c(-c3ccccc3)cc(=O)c2c1 | > 8.62 µM | – | > 100 µM | > 42.2 µM | 0.226 µM | > 14.4 µM | > 47.5 µM | 0.0732 µM | > 100 µM | > 100 µM
c1ccc(C/C(=N\Nc2nc3ccccc3o2)c2ccccn2)cc1 | 0.957 µM | 2.49 µM | – | 0.268 µM | 1.68 µM | – | 2.27 µM | 4.56 µM | 0.654 µM | 3.31 µM
C=C1c2nc3ccccc3n2C=C(c2ccccc2)N1c1ccc(OC)cc1 | > 100 µM | 62.2 µM | – | > 100 µM | > 100 µM | > 100 µM | 24 µM | – | 64 µM | 28.7 µM
C[C@@H](C[C@@H](O)[C@H](O)C(C)(C)O)[C@H]1CC=C2[C@]3(C)[C@H](O)C[C@H]4C(C)(C)[C@H](O)CC[C@]4(C)[C@H]3CC[C@@]21C | 48.2 µM | – | 28.5 µM | 27.1 µM | 40.5 µM | 29.6 µM | 30.2 µM | 26.2 µM | 30 µM | 27.4 µM
COc1cc2cc3c4c(cc(OC)c(OC)c4c2cc1OC)CCN3C(=O)OCCBr | – | > 100 µM | > 100 µM | > 100 µM | > 100 µM | > 100 µM | > 100 µM | > 100 µM | > 100 µM | > 100 µM
COc1cc(C2S/C(=C/c3ccccc3)C(=O)N2c2ccc(Cl)cc2)cc(OC)c1OC (centres undefined) | > 100 µM | > 100 µM | > 100 µM | > 52 µM | 85 µM | > 81.5 µM | – | > 75.9 µM | > 100 µM | > 100 µM
C/C=C\C(CC(=O)O)CC(=O)NCCC1CN(S(=O)(=O)C(F)(F)F)c2ccccc21 (centres undefined) | > 100 µM | > 100 µM | > 100 µM | > 100 µM | – | > 100 µM | > 100 µM | > 100 µM | > 100 µM | > 100 µM
CCCCCCCC(CC(=O)O)OC(=O)CC(CCCCCCC)OC1OC(C)C(O)C(O)C1OC1OC(C)C(O)C(O)C1O (centres undefined) | > 100 µM | > 100 µM | > 100 µM | > 100 µM | – | > 100 µM | > 100 µM | > 100 µM | > 100 µM | > 100 µM
CCOC(=O)C(Cc1c(-c2[nH]c3ccccc3c2CC(NC(=O)CNC(C)=O)C(=O)OCC)[nH]c2ccccc12)NC(=O)CNC(C)=O (centres undefined) | > 100 µM | > 100 µM | > 100 µM | 85.2 µM | – | > 100 µM | > 100 µM | > 100 µM | > 100 µM | –
COC(=O)c1cc2c3c(c(C(C)=O)c(OC)c2[nH]1)NCC3 | > 50 µM | > 50 µM | – | – | > 50 µM | > 50 µM | > 50 µM | > 50 µM | > 50 µM | > 50 µM
CCC1(O)CN(CCOC)[C@H]2C[C@@H]1C(=O)c1[nH]c3ccccc3c12 (some centres undefined) | > 100 µM | – | > 100 µM | > 100 µM | > 100 µM | > 100 µM | > 100 µM | > 100 µM | > 100 µM | > 100 µM
Cc1cccc(N2CCN(S(=O)(=O)c3ccc(Cl)cc3)C2=N)c1C | > 100 µM | > 100 µM | > 100 µM | – | – | > 100 µM | – | > 100 µM | > 100 µM | > 100 µM
CC(=O)Nc1ccc(C(=O)N2N=C(C)/C(=C/c3cccc(O)c3)C2=O)cc1 | – | – | > 100 µM | – | – | > 100 µM | > 100 µM | > 100 µM | > 100 µM | > 100 µM
CNC(=O)OCC1=C(COC(=O)NC)CN(c2ccccc2)C1 | > 100 µM | > 100 µM | > 100 µM | > 100 µM | – | > 100 µM | > 100 µM | > 100 µM | – | > 100 µM
C=C1C(=O)O[C@H]2C(=O)[C@H](C)CCC[C@@](C)(O)/C=C\C[C@@]3(C)O[C@@H]3C[C@@H]12 | 33.7 µM | 37.8 µM | – | 23.8 µM | – | – | 76.1 µM | 28.4 µM | 27 µM | 20.5 µM
COc1cccc(N2N=C3c4ccccc4-n4c(nc5ccccc54)C3C2N)c1 (centres undefined) | > 100 µM | > 100 µM | > 100 µM | > 100 µM | > 100 µM | – | > 100 µM | > 100 µM | > 100 µM | > 100 µM
O=C(Cc1nc2ccc([N+](=O)[O-])cc2[nH]c1=O)C(=O)Nc1cc(Cl)c(Cl)cc1Cl | – | > 100 µM | > 100 µM | > 100 µM | – | > 100 µM | > 100 µM | > 100 µM | > 100 µM | > 100 µM
COc1cc(/C=C2\C[C@H]3[C@@H]4CC=C5C[C@@H](N6CCCC6)CC[C@]5(C)[C@H]4CC[C@]3(C)[C@H]2OC(C)=O)cc(OC)c1OC | 29.6 µM | 31.7 µM | 34.1 µM | 22.3 µM | 65.7 µM | 22.5 µM | – | 21.6 µM | 32.6 µM | 32.9 µM
Cc1ccc(Nc2nnc3n2S(=O)(=O)c2cc(C)c(Cl)cc2S3)cc1 | 54.9 µM | – | > 100 µM | 83.1 µM | 9.33 µM | 32.7 µM | > 100 µM | 38.5 µM | 66.1 µM | > 100 µM
COc1ccc(C=O)cc1Oc1ccc(C[C@H]2c3c(cc(OC)c4c3Oc3cc5c(cc3O4)CCN(C)C5=O)CCN2C)cc1 | 14.3 µM | – | 22.7 µM | 13.7 µM | 17.5 µM | 21.7 µM | 16 µM | 14.4 µM | > 50 µM | 18.4 µM
